# Where two headings read alike, the source gives them in different places.
# What was measured:
# [1] = tested on: MPC2 (pancreatic cancer cell line); experiment: In vitro cytotoxic activity, MTT assay; assay type: cell-based; conditions: 72 h
# Experimental: (§1) The in vitro cytotoxic activities of SBE were evaluated on six different tumor cell lines including MPC2 (pancreatic cancer cell line), HT29 (colon cancer cell line), DU145 (prostate cancer cell line), NCI-H520 (lung cancer cell line), Hela (cervical cancer cell line) and 2774 (ovarian cancer cell line) using MTT assay. Cells were cultured in RPMI DMEM medium (containing 100 IU/mL G-penicillin, 100 µg/mL streptomycin and supplemented with 10% fetal calf serum) at 37 °C with 5% of CO2 in a CO2 incubator. In the MTT experiments, the cells were initially seeded in a 96-well plate with 0.1–0.2 mL (about 15 × 10^3 cells) of culture medium per well and allowed to attach overnight (about 24 h). Once attached, the cell confluence in each well reached approximately 50–60% when the drugs were added. Then the medium was replaced with fresh medium containing SBE or BA at different concentrations in four replicates. After incubating in the CO2 incubator for 3 days (about 72 h), 30 µL of MTT solution (3 mg/mL in culture medium) was added to each well and incubated for an additional 4 h. The medium was then aspirated and 150 µL of DMSO was added to each well to dissolve the formazan crystals thoroughly. The absorbance (OD value) was quantitated at 490 nm using a microplate reader (ELX800, Biotek, America). The relative growth inhibition rate (%) was calculated as (1 − mean absorbance of the sample/mean absorbance of the control) × 100%, considering the optical density of the control as 100%.
# [2] = tested on: Hela (cervical cancer cell line); experiment: In vitro cytotoxic activity, MTT assay; assay type: cell-based; conditions: Homo sapiens, 72 h
# Experimental: as §1
# [3] = tested on: HT29 (colon cancer cell line); experiment: In vitro cytotoxic activity, MTT assay; assay type: cell-based; conditions: Homo sapiens, HT-29, 72 h
# Experimental: as §1
# [4] = tested on: 2774 (ovarian cancer cell line); experiment: In vitro cytotoxic activity, MTT assay; assay type: cell-based; conditions: 2774, MTT, 72 h
# Experimental: as §1
# [5] = tested on: DU145 (prostate cancer cell line); experiment: In vitro cytotoxic activity, MTT assay; assay type: cell-based; conditions: Homo sapiens, DU-145, 72 h
# Experimental: as §1
# [6] = tested on: NCI-H520 (lung cancer cell line); experiment: In vitro cytotoxic activity, MTT assay; assay type: cell-based; conditions: Homo sapiens, 72 h
# Experimental: as §1
# [7] = tested on: cleaved-cas9 (caspase 9); experiment: Western blot analysis in Hela cells; assay type: cell-based; conditions: 50 μmol/L, 24 h
# Experimental: (§2) Expression of the proteins including cleaved-cas9, Bad and Bcl-xL in Hela cells treated with BA or SBE were determined by western blot analysis. Briefly, HeLa cells (1.7 × 10^5) were seeded in a 6-well microplate and allowed to attach overnight (about 24 h). The cells were then treated with BA or SBE at a concentration of 50 μmol/L for another 24 h. After that, cells were collected and lysed in PIRA buffer (Beyotime Biotech, Beijing, China) with PhosSTOP phosphatase inhibitor cocktail tablets (Roche Diagnostics, Mannheim, Baden-Württemberg, Germany). Bradford method was used to quantify the protein concentration. The samples were denatured at 100 °C for 5 min using a block heater. Then 30 μg of the denatured samples were separated by SDS-PAGE and allowed to transfer to a PVDF membrane. After the blots were blocked and washed, they were incubated overnight at 4 °C with specific primary antibodies against cleaved-cas9, Bad, Bcl-xL and β-actin. The blotting membrane was then washed three times using TBS-tween (Tris buffer saline with 1% Tween-20, pH 7.5), and incubated with IgG secondary antibodies for another 1 h at room temperature (or incubated overnight at 4 °C), followed by the same washing procedures above. After that, the immunoreactive proteins were developed with the ECL system. Imagelab software was used to quantify proteins and β-actin was used as a loading control. The changed fold was represented by the protein expression ratio [(target protein/the β-actin)/(the control group/the β-actin)].
# [8] = tested on: Bcl-xL; experiment: Western blot analysis in Hela cells; assay type: cell-based; conditions: 50 μmol/L, 24 h
# Experimental: as §2
# [9] = tested on: Bad/Bcl-xL ratio; experiment: Western blot analysis in Hela cells; assay type: cell-based; conditions: 50 μmol/L, 24 h
# Experimental: as §2
# [10] = tested on: Lewis lung carcinoma (LLC) tumor; experiment: Lewis lung carcinoma (LLC) subcutaneous xenograft growth model; assay type: in vivo, C57BL/6J mice; conditions: 0.4 mmol/kg i.p. every other day; for tumor growth inhibition rate (IR) / effect on the body weight of the mice / mean tumor volume: 18 days; for effect on the body weight of the mice: vs vehicle control; for mean tumor volume: placebo 3522.72 ± 2446.63 mm^3; for tumor weight reduced by: day 18, vs vehicle control; for mean tumor weight: day 18, vehicle control 2.86 ± 1.16 g
# Experimental: The antitumor activities in vivo assay were performed as described previously with minor modifications. C57BL/6J mice (20 ± 2 g) for the xenograft animal model were purchased from the Laboratory Animal Center of Jilin University (Jilin, China). A formulation of SBE (48 mg/mL) or BA (40 mg/mL) was prepared by mixing SBE or BA with ethanol/tween 80/normal saline (v/v/v = 1/1/18). Each of the mice was inoculated subcutaneously on the back with about 1 × 10^6 Lewis lung carcinoma (LLC) tumor cells (purchased from Nanjing KeyGen Biotech. Inc., China) to obtain the xenograft animal model. Then the mice were divided into three experimental groups (n = 4) randomly on the next day after implantation. BA (200 mg/kg, i.e., 0.4 mmol/kg), SBE (240 mg/kg, i.e., 0.4 mmol/kg) or placebo was injected intraperitoneally (i.p.) every other day. The changes in tumor length, width and body weight were also observed and recorded every other day. Xenograft tumor volume (TV) and growth inhibition rate (IR) were calculated as the following equation [25]:TV = 0.5 × length × width^2; IR = (Vcontrol − Vtreat)/Vcontrol × 100%.
# Mice were continually observed for 18 days, and then sacrificed on day 18 via euthanasia. The implanted tumors then were excised and weighed for subsequent analysis. All the animal handling procedures above were according to standard operating procedures approved by the institutional animal care and use committee at Northeast Forestry University.
# [11] = Equilibrium solubility in different solvents (saturation shake-flask, HPLC); assay type: physicochemical; conditions: 20 °C, thermodynamic from solid
# Experimental: (§3) The solubility was recorded at 20 °C in the present study. The solubility under equilibrium conditions was determined using the saturation shake-flask method with minor modifications. Briefly, an excess amount of SBE was added slowly to 1 mL of different solvents including methanol, ethanol, ethyl acetate, n-butanol, n-octanol, acetonitrile, petroleum ether as well as water. The mixture was then in crimp-sealed vials and was stirred vigorously at 20 °C for about 48 h. After that, the mixture was left to stand for an additional 24 h to reach equilibration, and then followed by centrifuging at 13,000 rpm for at least 10 min. 50 µL of the supernatant was transferred into a new tube, and evaporated to dryness under a slow nitrogen stream. The residue was then stored at −20 °C for further use or reconstituted in 1 mL of methanol. For the aqueous solution, 500 µL of the supernatant was transferred to the new tube, and the residue was reconstituted in 100 µL of methanol after dryness. After being centrifuged at 13,000 rpm for 10 min, a 20 μL aliquot was injected into the HPLC systems.
# [12] = Pharmacokinetics of BE after i.g. dosing (previous study); assay type: in vivo, rat; conditions: BE i.g. 500 mg/kg vs SBE i.g. 200 mg/kg
# [13] = design: method as in PMID 24095874; conditions: i.g. dose of 500 mg/kg; cited from earlier work
# [14] = Equilibrium solubility in phosphate buffer at different pH; assay type: physicochemical; conditions: 20 °C, aqueous buffer, thermodynamic from solid
# Experimental: as §3
# (§4) Equilibrium solubility and apparent oil-water partition coefficient of SBE in pH 5.0, 6.0, 6.5, 7.0, 7.4 and 8.0 phosphate buffer were also determined. Equilibrium solubility was determined by the method described above. The apparent oil-water partition coefficient (P) was calculated through the mass concentration ratio of the oil phase and water phase after balancing SBE distribution using the following equations: P = C1V1/(C0V0 − C1V1), where C0 and C1 are the initial and final concentrations of SBE in n-octanol before and after equilibration, respectively; V0 is the volume of n-octanol (water-saturated), V1 is the final oil volume after equilibration.
# [15] = Apparent oil/water partition coefficient (water-saturated n-octanol vs phosphate buffer); assay type: physicochemical; conditions: for logP: water-saturated n-octanol/phosphate buffer
# Experimental: as §4, with “Equilibrium” for “Equilibrium solubility and apparent oil-water partition coefficient of SBE in pH 5.0, 6.0, 6.5, 7.0, 7.4 and 8.0 phosphate buffer were also determined. Equilibrium”
# [16] = tested on: Bad; experiment: Western blot analysis in Hela cells; assay type: cell-based; conditions: 50 μmol/L, 24 h, vs control cells
# Experimental: as §2
structure (smiles),measurement,setting,value
"C=C(C)[C@@H]1CC[C@]2(C(=O)O)CC[C@]3(C)[C@H](CC[C@@H]4[C@@]5(C)CC[C@H](O)C(C)(C)[C@@H]5CC[C@]43C)[C@@H]12 [BA, 3β-hydroxy-lup-20(29)-en-28-oic acid, reference compound]",IC50,[1],38.6 ± 2.91 µM
same,IC50,[2],25.9 ± 1.87 µM
same,IC50,[3],32.7 ± 0.62 µM
same,IC50,[4],39.5 ± 2.19 µM
same,IC50,[5],23.3 ± 2.2 µM
same,IC50,[6],19.6 ± 2.44 µM
same,cleavage products of caspase 9,[7],clearly increased
same,Bcl-xL levels,[8],no significant difference
same,ratio of Bad/Bcl-xL,[9],notably up-regulated
same,tumor growth inhibition rate (IR),[10],~61.93%
same,effect on the body weight of the mice,[10],no obvious effect
same,mean tumor volume,[10],1340.91 ± 1186.99 mm^3
same,tumor weight reduced by,[10],~68.89%
same,mean tumor weight,[10],0.89 ± 0.53 g
same,solubility thermodynamic at 48 h,"[11]; acetonitrile, organic solvent or mixture",250 ± 20 µg/mL
same,solubility thermodynamic at 48 h,"[11]; ethanol, organic solvent or mixture",4130 ± 20 µg/mL
same,solubility thermodynamic at 48 h,"[11]; ethyl acetate, organic solvent or mixture",4470 ± 240 µg/mL
same,solubility thermodynamic at 48 h,"[11]; methanol, organic solvent or mixture",1920 ± 440 µg/mL
same,solubility thermodynamic at 48 h,"[11]; n-butanol, organic solvent or mixture",4140 ± 100 µg/mL
same,solubility thermodynamic at 48 h,"[11]; n-octanol, organic solvent or mixture",6230 ± 680 µg/mL
same,solubility thermodynamic at 48 h,"[11]; petroleum ether, organic solvent or mixture",27 ± 10 µg/mL
same,solubility thermodynamic at 48 h,[11]; water,36 ± 10 µg/mL
"C=C(C)[C@@H]1CC[C@]2(CO)CC[C@]3(C)[C@H](CC[C@@H]4[C@@]5(C)CC[C@H](O)C(C)(C)[C@@H]5CC[C@]43C)[C@@H]12 [BE, lup-20(29)-en-3β, 28-diol]",AUC0−∞ of BE relative to that of SBE,[12],about 5%
same,AUC0−∞,[13],1408.3 ± 183.7 ng·h/mL
"C=C(C)[C@@H]1CC[C@]2(COC(=O)CCC(=O)O)CC[C@]3(C)C(CCC4[C@@]5(C)CC[C@H](O)C(C)(C)C5CC[C@]43C)C12 (some centres unmarked) [SBE, 28-O-succinyl betulin]",solubility thermodynamic at 48 h,[14]; phosphate buffer pH 5,2.79 µg/mL
same,solubility thermodynamic at 48 h,[14]; phosphate buffer pH 6,2.66 µg/mL
same,solubility thermodynamic at 48 h,[14]; phosphate buffer pH 6.5,2.46 µg/mL
same,solubility thermodynamic at 48 h,[14]; phosphate buffer pH 7,10.9 µg/mL
same,solubility thermodynamic at 48 h,[14]; phosphate buffer pH 7.4,29.8 µg/mL
same,solubility thermodynamic at 48 h,[14]; phosphate buffer pH 8,15.3 µg/mL
same,Apparent Oil/Water Partition Coefficient (P),[15]; n-octanol/phosphate buffer pH 5,9.68 ± 0.13
same,Apparent Oil/Water Partition Coefficient (P),[15]; n-octanol/phosphate buffer pH 6,9.57 ± 0.30
same,Apparent Oil/Water Partition Coefficient (P),[15]; n-octanol/phosphate buffer pH 6.5,9.75 ± 0.21
same,Apparent Oil/Water Partition Coefficient (P),[15]; n-octanol/phosphate buffer pH 7,8.63 ± 0.19
same,Apparent Oil/Water Partition Coefficient (P),[15]; n-octanol/phosphate buffer pH 7.4,8.14 ± 0.27
same,Apparent Oil/Water Partition Coefficient (P),[15]; n-octanol/phosphate buffer pH 8,9.53 ± 0.23
same,logP,"[15]; pH 5, n-octanol/PBS, over pH 5–8, read-out: LogP values (all)",0.91 to 0.99
same,logP,"[15]; pH 5, n-octanol/phosphate buffer pH 5, read-out: LogP",0.99 ± 0.01
same,logP,"[15]; pH 6, n-octanol/phosphate buffer pH 6, read-out: LogP",0.98 ± 0.01
same,logP,"[15]; pH 6.5, n-octanol/phosphate buffer pH 6.5, read-out: LogP",0.99 ± 0.01
same,logP,"[15]; pH 7, n-octanol/phosphate buffer pH 7, read-out: LogP",0.94 ± 0.01
same,logP,"[15]; pH 7.4, n-octanol/phosphate buffer pH 7.4, read-out: LogP",0.91 ± 0.01
same,logP,"[15]; pH 8, n-octanol/phosphate buffer pH 8, read-out: LogP",0.98 ± 0.01
same,expression level of Bad,[16],significantly higher
same,Bcl-xL levels,[8],no significant difference
same,tumor growth inhibition rate (IR),[10],about 88.69%
same,effect on the body weight of the mice,[10],no obvious effect
same,mean tumor volume,[10],398.17 ± 384.06 mm^3
same,tumor weight reduced by,[10],about 85.31%
same,mean tumor weight,[10],0.42 ± 0.40 g

# — paper PMC10419975, “A Novel Betulinic Acid Analogue: Synthesis, Solubility, Antitumor Activity and Pharmacokinetic Study in Rats” (Molecules, 2023)
